In ChEMBL document CHEMBL5649169 (ChemMedChem, 2018):

Key:
[1] = target: Interleukin-1 receptor-associated kinase 1 (Homo sapiens) (UniProt P51617)
[2] = target: Small ribosomal subunit protein uS15 (Homo sapiens) (UniProt P62277)
[3] = target: 26S proteasome regulatory subunit 7 (Homo sapiens) (UniProt P35998)
[4] = target: Conserved oligomeric Golgi complex subunit 7 (Homo sapiens) (UniProt P83436)
[5] = target: Proto-oncogene tyrosine-protein kinase receptor Ret (Homo sapiens) (UniProt P07949)
Moesin (Homo sapiens) = Moesin (Homo sapiens) (UniProt P26038)
Chain of Moesin (Homo sapiens) (P26038 whole entry): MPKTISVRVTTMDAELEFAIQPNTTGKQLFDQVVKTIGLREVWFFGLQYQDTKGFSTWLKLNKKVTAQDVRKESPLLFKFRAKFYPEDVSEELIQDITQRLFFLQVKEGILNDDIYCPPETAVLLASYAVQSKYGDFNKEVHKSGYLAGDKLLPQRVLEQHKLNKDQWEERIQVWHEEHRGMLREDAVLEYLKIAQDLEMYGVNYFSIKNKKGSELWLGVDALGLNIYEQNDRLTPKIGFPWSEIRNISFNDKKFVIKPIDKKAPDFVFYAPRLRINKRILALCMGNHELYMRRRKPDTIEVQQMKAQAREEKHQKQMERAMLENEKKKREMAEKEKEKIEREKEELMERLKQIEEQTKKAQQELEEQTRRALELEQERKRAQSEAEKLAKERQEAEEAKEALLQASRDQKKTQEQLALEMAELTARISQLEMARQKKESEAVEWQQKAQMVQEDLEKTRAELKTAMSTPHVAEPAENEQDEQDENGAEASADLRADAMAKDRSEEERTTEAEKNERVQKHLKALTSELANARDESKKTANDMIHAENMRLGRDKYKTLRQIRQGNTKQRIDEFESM

Stathmin (Homo sapiens) = Stathmin (Homo sapiens) (UniProt P16949)
Chain of Stathmin (Homo sapiens) (P16949 whole entry): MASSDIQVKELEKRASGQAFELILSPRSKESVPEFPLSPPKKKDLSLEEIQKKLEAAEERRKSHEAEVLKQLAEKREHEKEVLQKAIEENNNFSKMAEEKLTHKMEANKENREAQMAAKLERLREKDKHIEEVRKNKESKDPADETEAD

[6] = target: Protein FAM136A (Homo sapiens) (UniProt Q96C01)
[7] = target: Protein mono-ADP-ribosyltransferase PARP16 (Homo sapiens) (UniProt Q8N5Y8)
[8] = target: ER lumen protein-retaining receptor 2 (Homo sapiens) (UniProt P33947)
[9] = target: Rho GDP-dissociation inhibitor 2 (Homo sapiens) (UniProt P52566)
[10] = target: cAMP-dependent protein kinase type II-alpha regulatory subunit (Homo sapiens) (UniProt P13861)
[11] = target: Testis-expressed protein 264 (Homo sapiens) (UniProt Q9Y6I9)
[12] = target: Heterogeneous nuclear ribonucleoprotein H (Homo sapiens) (UniProt P31943)
[13] = target: ATP-dependent 6-phosphofructokinase, liver type (Homo sapiens) (UniProt P17858)
[14] = target: Heterogeneous nuclear ribonucleoprotein F (Homo sapiens) (UniProt P52597)
[15] = target: RNA cytosine C(5)-methyltransferase NSUN2 (Homo sapiens) (UniProt Q08J23)
[16] = target: TELO2-interacting protein 1 homolog (Homo sapiens) (UniProt O43156)
[17] = target: Eukaryotic translation initiation factor 3 subunit B (Homo sapiens) (UniProt P55884)
[18] = target: Pre-mRNA-splicing factor SPF27 (Homo sapiens) (UniProt O75934)
[19] = target: Mitochondrial antiviral-signaling protein (Homo sapiens) (UniProt Q7Z434)
Chain of Mitochondrial antiviral-signaling protein (Homo sapiens) (Q7Z434 whole entry): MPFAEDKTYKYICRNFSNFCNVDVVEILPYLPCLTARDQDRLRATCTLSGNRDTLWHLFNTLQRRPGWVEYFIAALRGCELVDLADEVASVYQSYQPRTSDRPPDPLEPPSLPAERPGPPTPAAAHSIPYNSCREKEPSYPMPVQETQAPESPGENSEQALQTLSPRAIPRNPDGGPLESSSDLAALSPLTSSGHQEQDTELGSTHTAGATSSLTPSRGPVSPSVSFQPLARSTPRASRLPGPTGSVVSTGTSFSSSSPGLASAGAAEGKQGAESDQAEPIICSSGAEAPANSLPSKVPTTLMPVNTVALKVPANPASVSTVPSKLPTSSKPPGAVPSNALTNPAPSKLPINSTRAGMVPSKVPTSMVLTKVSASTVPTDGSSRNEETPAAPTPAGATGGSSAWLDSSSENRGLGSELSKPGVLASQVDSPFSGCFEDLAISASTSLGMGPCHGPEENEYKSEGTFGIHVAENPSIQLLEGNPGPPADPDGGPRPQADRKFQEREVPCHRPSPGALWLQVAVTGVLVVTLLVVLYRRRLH

[20] = target: Protein FAM83B (Homo sapiens) (UniProt Q5T0W9)
[21] = target: 2,4-dienoyl-CoA reductase [(3E)-enoyl-CoA-producing], mitochondrial (Homo sapiens) (UniProt Q16698)
[22] = target: Tubulin alpha-1B chain (Homo sapiens) (UniProt P68363)
[23] = target: Serine/threonine-protein kinase SIK3 (Homo sapiens) (UniProt Q9Y2K2)
[24] = target: Bone morphogenetic protein receptor type-2 (Homo sapiens) (UniProt Q13873)
Chain of Bone morphogenetic protein receptor type-2 (Homo sapiens) (Q13873 whole entry): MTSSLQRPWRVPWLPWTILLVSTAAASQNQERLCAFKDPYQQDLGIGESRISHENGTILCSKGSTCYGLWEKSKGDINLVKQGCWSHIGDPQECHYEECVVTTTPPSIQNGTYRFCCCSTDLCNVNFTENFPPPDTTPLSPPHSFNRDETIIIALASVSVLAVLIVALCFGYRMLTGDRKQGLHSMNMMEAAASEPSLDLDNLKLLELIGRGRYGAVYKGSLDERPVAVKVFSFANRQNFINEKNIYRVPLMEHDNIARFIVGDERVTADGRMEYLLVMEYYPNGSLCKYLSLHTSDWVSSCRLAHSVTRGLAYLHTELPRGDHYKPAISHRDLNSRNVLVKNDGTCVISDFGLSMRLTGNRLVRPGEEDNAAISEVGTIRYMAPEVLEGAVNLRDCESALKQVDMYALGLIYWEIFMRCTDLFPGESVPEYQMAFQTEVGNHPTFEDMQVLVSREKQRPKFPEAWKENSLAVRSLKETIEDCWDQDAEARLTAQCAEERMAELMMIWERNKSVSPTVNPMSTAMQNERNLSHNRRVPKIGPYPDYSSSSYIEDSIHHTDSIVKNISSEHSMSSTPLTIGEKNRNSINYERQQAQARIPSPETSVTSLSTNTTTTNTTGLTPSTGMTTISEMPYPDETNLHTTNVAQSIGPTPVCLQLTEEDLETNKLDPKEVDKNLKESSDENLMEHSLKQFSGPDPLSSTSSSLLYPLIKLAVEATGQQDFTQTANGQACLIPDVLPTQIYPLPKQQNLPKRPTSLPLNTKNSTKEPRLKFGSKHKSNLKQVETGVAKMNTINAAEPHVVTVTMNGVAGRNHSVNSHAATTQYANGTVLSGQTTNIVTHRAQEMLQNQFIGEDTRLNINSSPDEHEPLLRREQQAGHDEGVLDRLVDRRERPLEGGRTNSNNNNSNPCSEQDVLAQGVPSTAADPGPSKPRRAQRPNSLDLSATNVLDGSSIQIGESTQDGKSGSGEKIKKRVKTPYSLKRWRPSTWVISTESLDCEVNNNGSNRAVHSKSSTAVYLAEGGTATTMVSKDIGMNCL

[25] = target: E3 ubiquitin-protein ligase RNF213 (Homo sapiens) (UniProt Q63HN8)
Calnexin (Homo sapiens) = Calnexin (Homo sapiens) (UniProt P27824)
[26] = target: Deoxyribose-phosphate aldolase (Homo sapiens) (UniProt Q9Y315)
Chain of Deoxyribose-phosphate aldolase (Homo sapiens) (Q9Y315 whole entry): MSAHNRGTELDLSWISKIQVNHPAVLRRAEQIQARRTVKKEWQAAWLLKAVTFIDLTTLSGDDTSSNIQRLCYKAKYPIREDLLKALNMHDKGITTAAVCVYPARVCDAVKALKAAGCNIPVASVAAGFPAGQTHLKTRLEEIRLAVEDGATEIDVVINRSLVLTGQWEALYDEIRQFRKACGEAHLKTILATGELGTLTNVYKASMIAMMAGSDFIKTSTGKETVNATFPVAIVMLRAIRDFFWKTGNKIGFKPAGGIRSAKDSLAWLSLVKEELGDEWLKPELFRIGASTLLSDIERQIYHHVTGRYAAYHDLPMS

[27] = target: ADP/ATP translocase 2 (Homo sapiens) (UniProt P05141)
[28] = target: Heterogeneous nuclear ribonucleoprotein K (Homo sapiens) (UniProt P61978)
[29] = target: AP-1 complex subunit mu-1 (Homo sapiens) (UniProt Q9BXS5)
[30] = target: Protein Aster-A (Homo sapiens) (UniProt Q96CP6)
Chain of Protein Aster-A (Homo sapiens) (Q96CP6 whole entry): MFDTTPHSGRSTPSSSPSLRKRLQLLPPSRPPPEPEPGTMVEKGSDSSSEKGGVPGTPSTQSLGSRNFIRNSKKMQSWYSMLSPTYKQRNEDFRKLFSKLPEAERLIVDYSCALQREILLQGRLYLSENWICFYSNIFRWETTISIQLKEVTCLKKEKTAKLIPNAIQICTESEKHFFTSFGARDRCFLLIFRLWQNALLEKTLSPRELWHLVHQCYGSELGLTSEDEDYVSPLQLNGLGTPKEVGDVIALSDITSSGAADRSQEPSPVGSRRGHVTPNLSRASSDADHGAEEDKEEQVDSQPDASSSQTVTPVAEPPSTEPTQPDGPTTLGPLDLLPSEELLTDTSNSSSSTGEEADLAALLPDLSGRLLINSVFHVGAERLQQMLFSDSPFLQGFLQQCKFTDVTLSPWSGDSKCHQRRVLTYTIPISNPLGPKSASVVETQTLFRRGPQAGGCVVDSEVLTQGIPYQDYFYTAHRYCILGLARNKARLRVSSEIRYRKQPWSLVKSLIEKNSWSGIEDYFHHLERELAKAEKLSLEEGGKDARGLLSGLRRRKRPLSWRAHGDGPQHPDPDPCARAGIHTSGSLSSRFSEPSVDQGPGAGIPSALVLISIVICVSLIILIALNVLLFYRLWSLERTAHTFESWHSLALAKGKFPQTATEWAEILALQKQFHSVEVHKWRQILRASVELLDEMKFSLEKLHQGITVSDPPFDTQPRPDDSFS

[31] = target: tRNA (guanosine(18)-2'-O)-methyltransferase TARBP1 (Homo sapiens) (UniProt Q13395)
Chain of tRNA (guanosine(18)-2'-O)-methyltransferase TARBP1 (Homo sapiens) (Q13395 whole entry): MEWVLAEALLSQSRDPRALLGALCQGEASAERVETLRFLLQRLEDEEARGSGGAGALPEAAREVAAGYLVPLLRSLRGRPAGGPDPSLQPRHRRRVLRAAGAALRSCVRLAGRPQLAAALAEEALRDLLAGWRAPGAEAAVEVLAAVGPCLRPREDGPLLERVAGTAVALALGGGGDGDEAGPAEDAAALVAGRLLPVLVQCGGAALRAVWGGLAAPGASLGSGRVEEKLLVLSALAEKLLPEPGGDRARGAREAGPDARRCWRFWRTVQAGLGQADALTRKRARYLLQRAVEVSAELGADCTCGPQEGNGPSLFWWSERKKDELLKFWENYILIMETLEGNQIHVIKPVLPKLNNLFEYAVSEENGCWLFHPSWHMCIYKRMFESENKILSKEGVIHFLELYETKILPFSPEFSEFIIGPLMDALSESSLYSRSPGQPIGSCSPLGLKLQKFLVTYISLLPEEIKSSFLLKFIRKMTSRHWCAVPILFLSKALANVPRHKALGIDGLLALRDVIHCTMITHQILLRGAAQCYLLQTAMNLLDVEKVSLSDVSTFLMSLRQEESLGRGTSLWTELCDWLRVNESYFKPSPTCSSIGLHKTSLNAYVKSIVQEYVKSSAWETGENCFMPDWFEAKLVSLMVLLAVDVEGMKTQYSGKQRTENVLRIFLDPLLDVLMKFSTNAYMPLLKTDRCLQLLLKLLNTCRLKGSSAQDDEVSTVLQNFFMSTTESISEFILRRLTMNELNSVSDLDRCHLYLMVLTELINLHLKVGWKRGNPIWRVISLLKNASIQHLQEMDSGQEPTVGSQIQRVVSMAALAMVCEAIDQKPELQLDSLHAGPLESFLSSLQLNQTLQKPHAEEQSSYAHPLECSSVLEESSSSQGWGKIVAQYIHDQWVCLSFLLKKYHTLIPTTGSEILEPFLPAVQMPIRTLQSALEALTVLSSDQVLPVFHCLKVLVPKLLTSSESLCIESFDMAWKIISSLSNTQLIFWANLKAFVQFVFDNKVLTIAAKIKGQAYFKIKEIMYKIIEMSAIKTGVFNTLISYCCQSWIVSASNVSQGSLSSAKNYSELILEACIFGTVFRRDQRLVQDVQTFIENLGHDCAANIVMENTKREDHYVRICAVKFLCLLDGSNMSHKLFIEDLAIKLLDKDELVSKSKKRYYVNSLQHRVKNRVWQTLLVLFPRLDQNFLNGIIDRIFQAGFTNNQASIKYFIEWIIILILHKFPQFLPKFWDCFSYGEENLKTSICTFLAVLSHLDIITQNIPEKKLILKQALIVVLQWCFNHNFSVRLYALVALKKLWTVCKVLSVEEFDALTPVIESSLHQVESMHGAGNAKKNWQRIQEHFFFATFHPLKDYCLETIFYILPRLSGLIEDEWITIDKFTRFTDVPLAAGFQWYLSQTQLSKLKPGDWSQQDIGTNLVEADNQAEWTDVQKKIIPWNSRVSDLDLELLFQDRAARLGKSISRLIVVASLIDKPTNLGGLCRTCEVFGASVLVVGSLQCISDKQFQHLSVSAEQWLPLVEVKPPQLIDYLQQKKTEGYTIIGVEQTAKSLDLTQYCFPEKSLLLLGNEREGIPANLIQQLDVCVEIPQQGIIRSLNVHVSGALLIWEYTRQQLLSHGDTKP

[32] = target: Tyrosine-protein kinase ABL1 (Homo sapiens, UniProt P00519)
[33] = target: Heterogeneous nuclear ribonucleoprotein U-like protein 2 (Homo sapiens) (UniProt Q1KMD3)
[34] = target: Serine/threonine-protein kinase TAO2 (Homo sapiens) (UniProt Q9UL54)
[35] = target: Acidic fibroblast growth factor intracellular-binding protein (Homo sapiens) (UniProt O43427)
[36] = target: UV excision repair protein RAD23 homolog B (Homo sapiens) (UniProt P54727)
[37] = target: Small ribosomal subunit protein uS10 (Homo sapiens) (UniProt P60866)
[38] = target: ATP synthase F(1) complex subunit gamma, mitochondrial (Homo sapiens) (UniProt P36542)
[39] = target: GTP-binding nuclear protein Ran (Homo sapiens) (UniProt P62826)
[40] = target: Eukaryotic translation initiation factor 3 subunit A (Homo sapiens) (UniProt Q14152)
[41] = target: Tetratricopeptide repeat protein 14 (Homo sapiens) (UniProt Q96N46)
[42] = target: Galectin-3-binding protein (Homo sapiens) (UniProt Q08380)
Note: assay method not described here.

Compound: Cc1ccc(C(=O)Nc2cccc(C(F)(F)F)c2)cc1Nc1nc(-c2cccnc2)nc2c1cnn2C
- ED50 [1]: 14.6 µM
- ED50 [2]: 2.21 µM
- ED50 [3]: 84.1 µM
- ED50 [4]: 0.018 µM
- ED50 [5]: 5.11 µM
- ED50 (Moesin (Homo sapiens)): 10.7 µM
- ED50 (Stathmin (Homo sapiens)): 12.4 µM
- ED50 [6]: 0.043 µM
- ED50 [7]: 0.0016 µM
- ED50 [8]: 0.109 µM
- ED50 [9]: 46.5 µM
- ED50 [10]: 8.24 µM
- ED50 [11]: 5.04 µM
- ED50 [12]: 5.86 µM
- ED50 [13]: 111 µM
- ED50 [14]: 22.6 µM
- ED50 [15]: 48.7 µM
- ED50 [16]: 4370 µM
- ED50 [17]: 9.87 µM
- ED50 [18]: 0.00189 µM
- ED50 [19]: 5.26 µM
- ED50 [20]: 1380 µM
- ED50 [21]: 3.63 µM
- ED50 [22]: 1.73 µM
- ED50 [23]: 112 µM
- ED50 [24]: 3.02 µM
- ED50 [25]: 53.8 µM
- ED50 (Calnexin (Homo sapiens)): 5.64 µM
- ED50 [26]: 3.14 µM
- ED50 [27]: 2.54 µM
- ED50 [28]: 0.0564 µM
- ED50 [29]: 0.0552 µM
- ED50 [30]: 29.6 µM
- ED50 [31]: 18.4 µM
- ED50 [32]: 1.66 µM
- ED50 [33]: 32000 µM
- ED50 [34]: 23.9 µM
- ED50 [35]: 3.14 µM
- ED50 (Homo sapiens): 3.57 µM
- ED50 [36]: 0.00259 µM
- ED50 [37]: 0.371 µM
- ED50 [38]: 3.13 µM
- ED50 [39]: 4.29 µM
- ED50 [40]: 0.535 µM
- ED50 [41]: 1.9 µM
- ED50 [42]: 9.93 µM

Compound: Cc1ccc(C(=O)Nc2cccc(C(F)(F)F)c2)cc1Nc1nc(-c2cccnc2)nc2nn(C)cc12
- ED50 [1]: 0.0479 µM
- ED50 [2]: 0.00657 µM
- ED50 [3]: 232 µM
- ED50 [4]: 3.71 µM
- ED50 [5]: 0.0063 µM
- ED50 (Moesin (Homo sapiens)): 0.256 µM
- ED50 (Stathmin (Homo sapiens)): 8.26 µM
- ED50 [6]: 4.63 µM
- ED50 [7]: 22200 µM
- ED50 [8]: 0.051 µM
- ED50 [9]: 26.6 µM
- ED50 [10]: 0.325 µM
- ED50 [11]: 0.0539 µM
- ED50 [12]: 13.2 µM
- ED50 [13]: 0.0338 µM
- ED50 [14]: 0.349 µM
- ED50 [15]: 0.000187 µM
- ED50 [16]: 0.00118 µM
- ED50 [17]: 0.00195 µM
- ED50 [18]: 0.954 µM
- ED50 [19]: 0.394 µM
- ED50 [20]: 0.254 µM
- ED50 [21]: 10.5 µM
- ED50 [22]: 3.87 µM
- ED50 [23]: 10.4 µM
- ED50 [24]: 0.0175 µM
- ED50 [25]: 0.595 µM
- ED50 (Calnexin (Homo sapiens)): 9.63 µM
- ED50 [26]: 2.45 µM
- ED50 [27]: 0.186 µM
- ED50 [28]: 0.184 µM
- ED50 [29]: 0.0914 µM
- ED50 [30]: 0.495 µM
- ED50 [31]: 63.1 µM
- ED50 [32]: 1.34 µM
- ED50 [33]: 0.175 µM
- ED50 [34]: 4.27 µM
- ED50 [35]: 0.0301 µM
- ED50 (Homo sapiens): 0.061 µM
- ED50 [36]: 14.9 µM
- ED50 [37]: 3.63 µM
- ED50 [38]: 2.43 µM
- ED50 [39]: 0.116 µM
- ED50 [40]: 0.0765 µM
- ED50 [41]: 2.32 µM
- ED50 [42]: 0.0814 µM
